This is an account of results in patent US20220054485A1, “METHODS OF TREATING RIGHT VENTRICULAR FUNCTION IN PULMONARY HYPERTENSION” (REGENTS OF THE UNIVERSITY OF MINNESOTA, priority 2020, published 2022).

“Also recorded” adds a separate entry of the source. Like-named read-outs stand apart in the source and are kept apart here.

In assay [1] the test system is MCT rats. Conditions: cited from earlier work.
Assay [2] relates to H9c2 cardiomyocytes. Briefly: Seahorse mitochondrial respiration in H9c2 cardiomyocytes. It counts as cell-based, rat. Conditions: 20 μM paclitaxel overnight. The procedure:
Cell culture and mitochondrial respiration measurements: H9c2 (ATCC CRL-1446) rat cardiomyocytes were maintained in Dulbecco's Modified Eagle's Medium (DMEM) (Thermo Scientific) supplemented with 10% fetal bovine serum (FBS) (Foundation, Gemini Bio-Products, West Sacramento, Calif.), 100 U/ml penicillin, and 100 μg/ml streptomycin (Invitrogen, Carlsbad, Calif.) at 37° C. with 5% CO2. Cells were passaged with Accutase (BioLegend, San Diego, Calif.). Differentiation was induced by changing to differentiation medium which had 2% horse serum (Equitech-Bio, Kerrville, Tex.), in place of FBS. Ten thousand cells were plated per Agilent Seahorse XFp dish pretreated with 0.1% gelatin (Sigma-Aldrich, St. Louis, Mo.). Five days after initial plating, cells were treated with differentiation media supplemented with 20 μM paclitaxel in DMSO (Sigma-Aldrich) overnight. The following day and one hour before the assay, cell media was changed to Seahorse DMEM assay media and supplemented with 5 mM glucose, 4 mM glutamine, and 1 mM pyruvate (Agilent, Santa Clara, Calif.). Oxygen consumption rate (OCR) was measured with an Agilent Seahorse XFp Extracellular Flux analyzer using the Agilent XFp Cell Mito Stress Test Kit with oligomycin A (final concentration after injection 1.5 μM), carbonyl cyanide 4-(trifluoromethoxy)phenylhydrazone (FCCP at 2 μM), and […] rotenone/actimycin. After the assay, cells were lysed in 50 μl of 1× Laemmli sample buffer supplemented with HALT protease and phosphatase inhibitor cocktail (Thermo Fisher). Cell lysates were electrophoresed on SDS-PAGE gels and stained with CBB per above to estimate total protein per sample. Raw Seahorse measurements were normalized to total protein and analyzed using Agilent Wave software.

The subject of assay [3] is adult cardiomyocytes. Briefly: IL6 incubation of isolated adult cardiomyocytes (microtubules, JPH2, t-tubules). Format: cell-based. Conditions: IL6 10 ng/mL. The procedure: To examine the direct effects of IL6 on the MT-JPH2 pathway, adult cardiomyocytes were incubated with IL6 (10 ng/mL) and then it was quantified how MT, JPH2, and t-tubules were affected. IL6 increased MT density as determined by quantitative immunofluorescence (16.0±0.9 vs 20.4±0.7 fluorescence intensity/μm^2, p<0.001) (FIGS. 4A and 4B). The altered MT structure disrupted JPH2 localization marked by loss of t-tubule enrichment (TT score: 65.6±2.5 vs 59.6±1.6, p=0.04) (FIGS. 4C and 4D). Finally, IL6 caused t-tubule remodeling with loss of t-tubule regularity (TT score: 59.9±1.9 vs 51.9±1.5, p=0.003) (FIGS. 4E and 4F).
Determination of how IL6 alters the microtubule-JPH2-t-tubule pathway in isolated cardiomyocytes: Right ventricular cardiomyocytes are isolated using the Langendorf retrograde perfusion protocol. Cardiomyocytes are incubated for 24, 48, and 72 hours with either phosphate buffered saline (PBS), IL6 (10 ng/mL), IL6 (10 ng/mL) plus the STAT3 inhibitor Stattic (2 μM), or IL6 (10 ng/mL) plus colchicine (10 μM). Then Western blot analysis and confocal microscopy is used to examine microtubule density, JPH2 protein levels and localization, and t-tubule morphology. JPH2 localization patterns and t-tubule remodeling are quantified using the TTPower plug-in in FIJI.

In assay [4] the target is T1, IL-6 receptor (Homo sapiens, UniProt P08887).
T1 construct: host or cells: PAH patients (clinical trial run by others)
T1 sequence (P08887 20-468): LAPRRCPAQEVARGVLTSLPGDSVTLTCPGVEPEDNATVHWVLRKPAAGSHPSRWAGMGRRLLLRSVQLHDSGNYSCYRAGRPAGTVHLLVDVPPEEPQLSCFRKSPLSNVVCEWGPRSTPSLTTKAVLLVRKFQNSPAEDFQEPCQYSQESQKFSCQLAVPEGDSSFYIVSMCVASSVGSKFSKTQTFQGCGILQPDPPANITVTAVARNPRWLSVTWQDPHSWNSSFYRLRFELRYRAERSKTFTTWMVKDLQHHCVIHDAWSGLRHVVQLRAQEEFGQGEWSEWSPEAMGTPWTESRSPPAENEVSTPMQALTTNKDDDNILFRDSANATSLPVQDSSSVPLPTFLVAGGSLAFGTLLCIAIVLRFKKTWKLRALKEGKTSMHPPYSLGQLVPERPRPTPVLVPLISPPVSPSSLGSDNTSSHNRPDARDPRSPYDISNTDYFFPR
As to conditions: PAH patients, vs control group; cited from earlier work.

Where [5] appears, read: therapy started one week after MCT.

Consider `C[C@]12CCC(OC=O)CC1CC[C@@H]1[C@@H]2CC[C@]2(C)C(C34C=CC(=O)OC3O4)CC3O[C@]312` (stereo partly shown) [20S,21-epoxy-resibufogenin-3-formate], for which, in assay [1] (setting [5]), the mPAP entry is “lowered mPAP” and the pulmonary vascular remodeling result is on record as “attenuated adverse pulmonary vascular remodeling”.
For `CC(=O)O[C@H]1C(=O)[C@@]2(C)[C@H]([C@H](OC(=O)c3ccccc3)[C@]3(O)C[C@H](OC(=O)[C@H](O)[C@@H](NC(=O)c4ccccc4)c4ccccc4)C(C)=C1C3(C)C)[C@]1(OC(C)=O)CO[C@@H]1C[C@@H]2O` [Paclitaxel, paclitaxel], in assay [2], the ATP production result is reported as “reduced”, the coupling efficiency result is given as “reduced”, the maximal respiration result is reported as “reduced” and the proton leak result is on record as “enhanced”. Further, the spare capacity entry in assay [2] is reported as “reduced”.
With `COc1cc2c(c(OC)c1OC)-c1ccc(OC)c(=O)cc1[C@@H](NC(C)=O)CC2` [colchicine], in assay [1] (RV, listed as Colchicine), the JPH2 expression result was “increases JPH2 expression” and the t-tubule architecture entry is listed as “corrects t-tubule architecture”. Further, in assay [1] (RV), the JPH2 expression result is “increases JPH2 levels; also recorded: increases JPH2 expression”, the microtubule density result is listed as “reduces microtubule density” and the t-tubule architecture entry is “combats pathological t-tubule remodeling”. Moreover, in assay [1], the “RV function / contractility” value was “augments RV function” and the exercise capacity result was “enhances exercise capacity”. Moreover, in assay [1] (listed as Colchicine), the “RV function / contractility” value was “improves RV function”.
For the compound `CCCc1nn(C)c2c(=O)[nH]c(-c3cc(S(=O)(=O)N4CCN(C)CC4)ccc3OCC)nc12` [sildenafil], in assay [1] (RV), the JPH2 expression entry is recorded as “restores RV JPH2 expression”; the t-tubule architecture result was “restores RV JPH2 expression and t-tubule architecture”. Besides, in assay [1], the “RV function / contractility” value was “improves RV contractility”.
As for “IL6: inflammatory cytokine that binds to the cell membrane proteins IL6 receptor and GP130”, in assay [3], the “JPH2 t-tubule enrichment (TT score)” value was found to be 59.6±1.6, the “MT density by quantitative immunofluorescence” value is recorded as 20.4±0.7 fluorescence intensity/μm^2 and the “t-tubule regularity (TT score)” value turned out to be 51.9±1.5.
Take “tocilizumab: a monoclonal antibody that antagonizes the IL-6 receptor”: the PVR entry in assay [4] is “not different between the tocilizumab and control groups; also recorded: does not alter PVR”.
